As a reminder, the inhibition is the change of the read-out against control, counted positive when it falls.

Results on one compound are retold here after article PMC8496750, “Identification of the organic anion transporting polypeptides responsible for the hepatic uptake of the major metabolite of epyrifenacil, S‐3100‐CA, in mice” (Pharmacology Research & Perspectives, 2021).

For series [1], the system named is various OATPs. The series can be described thus: Inhibition of S‐3100‐CA uptake by OATP inhibitors, various OATPs. The series is classed as in vitro ADME, mouse, human. Particulars: inhibitor at 100 μM. As for the experimental part: 293FT cells were purchased from Thermo Fisher Scientific, Inc.. The cells were grown in Dulbecco's modified Eagle medium (supplemented with 4.5 g/L glucose and 2 mM L‐glutamine) at 37°C, 5% CO2, and 95% humidity. The cells were passaged 3 times per week by harvesting cells using trypsin and plating at a density of 1.0 × 10^4 cells/cm^2 in a 10 cm cell culture plate for maintenance culture. The 293FT cells were detached using trypsin and re‐seeded at a density of 2.5 × 10^4 cells/cm^2 in BioCoat™ Collagen I 6‐well plates (Corning Inc.) for transfection and then treated with 1.2 μg of plasmid vector and 3.2 μl of Lipofectamine™ 2000 Transfection Reagent (Thermo Fisher Scientific, Inc.) according to the manufacturer's instructions. After a 3‐h treatment, the transfection medium was replaced with a fresh cell culture medium and incubated at 37°C with 95% humidity and 5% CO2 until ready for the assay.
Transport experiments were conducted approximately 24 h post‐transfection. […] From the lysate, 1.0 ml was transferred to a vial containing 10 ml of Emulsifier Scintillator Plus to measure the radioactivity in the LSC. The protein concentration of the cell lysate was also measured using a Pierce™ BCA Protein Assay Kit (Thermo Fisher Scientific, Inc.), which was used to normalize, according to the cell number, the radioactivity in the cell lysate extract. […]

Series [2] addresses T1, mouse Oatp1a1 (Mus musculus, UniProt Q9QXZ6).
T1 sequence (Q9QXZ6 1-670): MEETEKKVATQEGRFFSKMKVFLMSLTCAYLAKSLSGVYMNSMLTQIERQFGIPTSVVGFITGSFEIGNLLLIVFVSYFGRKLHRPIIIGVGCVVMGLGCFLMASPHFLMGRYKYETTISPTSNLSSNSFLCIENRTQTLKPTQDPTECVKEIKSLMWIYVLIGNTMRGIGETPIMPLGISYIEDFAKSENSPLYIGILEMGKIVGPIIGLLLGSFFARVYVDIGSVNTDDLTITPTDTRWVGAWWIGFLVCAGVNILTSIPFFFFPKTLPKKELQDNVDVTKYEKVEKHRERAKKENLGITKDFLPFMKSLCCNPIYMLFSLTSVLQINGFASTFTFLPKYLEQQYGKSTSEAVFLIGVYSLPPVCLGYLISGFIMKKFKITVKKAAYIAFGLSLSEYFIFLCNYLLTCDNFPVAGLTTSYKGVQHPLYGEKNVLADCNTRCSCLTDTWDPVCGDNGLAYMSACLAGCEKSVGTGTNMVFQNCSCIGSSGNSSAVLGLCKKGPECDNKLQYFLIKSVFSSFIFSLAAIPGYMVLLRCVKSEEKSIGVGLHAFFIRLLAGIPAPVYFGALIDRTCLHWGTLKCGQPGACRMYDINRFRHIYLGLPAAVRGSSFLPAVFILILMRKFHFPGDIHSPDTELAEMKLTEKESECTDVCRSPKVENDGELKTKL
The series can be described thus: in vitro. Particulars: 293FT cells transiently transfected with mouse Oatp1a1, probe radiolabeled S‐3100‐CA.
Method: (§1) Transport experiments were conducted approximately 24 h post‐transfection. The experiments were initiated by aspirating culture medium and addition of pre‐warmed radiolabeled substrate solution (final 1.0% of acetonitrile or 0.9% of ethanol in phosphate‐buffered saline (PBS[−])) to each well. After a 10‐min incubation, cells were washed twice with 1 ml of ice‐cold PBS(−) and lysed with 700 μl of 1.0 M NaOH for 3 h or more at room temperature. The lysate was transferred to a 1.5‐ml tube, and neutralized with 350 μl of 2.0 M HCl and 350 μl of 2.0% sodium dodecyl sulfate (SDS) solution. From the lysate, 1.0 ml was transferred to a vial containing 10 ml of Emulsifier Scintillator Plus to measure the radioactivity in the LSC. The protein concentration of the cell lysate was also measured using a Pierce™ BCA Protein Assay Kit (Thermo Fisher Scientific, Inc.), which was used to normalize, according to the cell number, the radioactivity in the cell lysate extract. The protein assay was performed in duplicate. Each sample type was assayed in triplicate wells, and each run was performed twice. […] Each sample type was assayed in triplicate wells.

Series [3] has as its target T2, mouse Oatp1a4 (Mus musculus, UniProt Q9EP96).
T2 sequence (Q9EP96 1-670): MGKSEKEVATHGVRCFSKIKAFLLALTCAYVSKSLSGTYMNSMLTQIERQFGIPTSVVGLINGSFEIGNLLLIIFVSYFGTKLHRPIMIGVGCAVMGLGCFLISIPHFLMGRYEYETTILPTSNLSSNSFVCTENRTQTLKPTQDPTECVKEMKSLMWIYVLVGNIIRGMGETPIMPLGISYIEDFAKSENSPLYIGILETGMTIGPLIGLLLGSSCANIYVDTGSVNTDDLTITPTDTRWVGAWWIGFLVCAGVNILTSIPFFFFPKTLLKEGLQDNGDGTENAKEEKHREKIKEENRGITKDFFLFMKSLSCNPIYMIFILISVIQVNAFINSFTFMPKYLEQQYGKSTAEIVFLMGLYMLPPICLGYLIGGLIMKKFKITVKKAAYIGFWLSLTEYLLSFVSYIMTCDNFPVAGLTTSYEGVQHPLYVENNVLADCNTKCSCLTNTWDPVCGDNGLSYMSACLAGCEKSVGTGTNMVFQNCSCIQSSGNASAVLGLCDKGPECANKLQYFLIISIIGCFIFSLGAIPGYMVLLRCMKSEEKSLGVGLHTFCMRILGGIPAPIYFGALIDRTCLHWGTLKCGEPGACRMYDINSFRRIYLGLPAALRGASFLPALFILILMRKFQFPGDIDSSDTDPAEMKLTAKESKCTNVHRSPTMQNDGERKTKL
The series can be described thus: in vitro. Particulars: 293FT cells transiently transfected with mouse Oatp1a4, probe radiolabeled S‐3100‐CA.
Method: as §1

Bounds are passed on as bounds.

On to `CO[C@H]1/C=C/O[C@@]2(C)Oc3c(C)c(O)c4c(O)c(cc(O)c4c3C2=O)NC(=O)/C(C)=C\C=C\[C@H](C)[C@H](O)[C@@H](C)[C@@H](O)[C@@H](C)[C@H](OC(C)=O)[C@@H]1C` [RSV, rifamycin SV], for which the “Inhibition of S‐3100‐CA uptake (in words)” value in series [1] is reported as “inhibited uptake via all OATPs other than human OATP2B1”. Moreover, the inhibition at 10 min, 10 µM in series [2] and in series [3] was > 50% each time.
